Test results taken from publication PMC9814590, “Precise heteroatom doping determines aqueous solubility and self-assembly behaviors for polycyclic aromatic skeletons” (Communications Chemistry, 2022).
≈ marks a conversion by molar mass, not a printed value. Read-outs that look alike come from different tables or passages of the source.

How the values were obtained:
Water-contact angle test = assay type: physicochemical; conditions: C2-C12
From the text: (§1) With the 12 combinatorial molecules in hand, we initially examined their hydrophilicity and aqueous solubility. The water-contact angle test gave a clear hydrophilic assessment for these molecules (Table 1 and Supplementary Table 1). The conventional shake-flask method was employed to obtain the thermodynamic aqueous solubility data[29]. […]. In pursuit of both improving the hydrophilicity and aqueous solubility, we planned to introduce dual N/O heteroatoms to C1 skeleton as listed in group 2. […]. The turning point comes to C9 that doping two N atoms on the phenanthrene subcomponent besides the oxazole part. A water contact angle of 0° indicates the high hydrophilicity of C9. […].
Supplementary Table 1. Collected water contact angles for C2 – C12 […]

[1] = Shake-flask thermodynamic aqueous solubility (1H NMR quantification); assay type: physicochemical; conditions: for solubility at 24 h: water, thermodynamic from solid, D2O, room temperature
From the text: as §1
1.3 Determination of solubility-related parameters
(1) Measurement of aqueous solubility
We applied the classic shake-flask method to determine the solubility data of C2–C12 in water. Typically, an excess amount of C2 was added to 1.0 mL of D2O, and the mixture was stirred at room temperature for 24 h. After that, the phase separation of saturated solution was finished through centrifugation. 1H NMR technology was applied to quantitatively analysis the concentration of solute using tetrahydrofuran as internal standard. Actually, we didn’t synthesize C1 to obtain its solubility data from experimental method because it’s obvious that this compound would be insoluble in water from reasonable judgement. Alternatively, due to its high hydrophobicity and measured water solubility data from C2–C8 counterpart, we can estimate this value must be at least lower than 0.1 mg / mL as well. […]

[2] = Hansen solubility parameters (HSP) from rated solvent library, optimized in HSPiP; Ra and RED versus water; assay type: physicochemical; conditions: for Water2 Ra: distance to water HSP of dense condition (18.1, 17.1, 16.9); for Water1 Ra: distance to water HSP of dilute condition (15.1, 20.4, 16.5); for δD (dispersion solubility parameter) / δH (hydrogen bonding solubility parameter) / δP (polar solubility parameter) / R0 (intrinsic distance parameter): experimentally rated solvent library, HSPiP; for R0 (intrinsic distance parameter): unit assumed; for Water1 RED (Ra/R0): water HSP of dilute condition (15.1, 20.4, 16.5)
From the text: To figure out why the doped N/O heteroatoms on the aromatic skeletons can both influence their hydrophilicity and aqueous solubility, we employed the Hansen solubility parameters (HSP) to interpret this phenomenon. This method developed by Charles Hansen et al.[30] has found broad use both in academia and industry for predicting the compatibility or affinity between two substances[31]–[34]. The key elements of HSP approach are three partial solubility parameters consisting of δD, δP, and δH, in which δD represents the dispersion solubility parameter, δP represents the polar solubility parameter, and δH represents the hydrogen bonding solubility parameter, respectively.
The three partial parameters define a three-dimensional coordinate for substances in a virtual solubility space (Hanse space). In principle, the closer the two coordinates of HSP are, the more likely the substances will dissolve in each other, which is consistent with the notion of “like dissolves like” rule. To better describe the degree of closeness, another solubility parameter “distance” (Ra) is introduced as follows:1 Ra2=4(δD2−δD1)^2+(δP2−δP1)^2+(δH2−δH1)^2 […]
Meanwhile, each substance has an intrinsic distance parameter R0, together with HSP as a center point that would define a solubility sphere in Hansen space. If the HSP coordinate of one substance is located inside the sphere of another substance, it indicates a high affinity between them. For solute and solvent cases, a dissolution process may happen. Otherwise, a low affinity is inferred if one substance is excluded from the sphere of another.
The total HSP data set of C1-C12 was experimentally tested and optimized from a combination of solvents library and listed in Table 1 (Supplementary Methods 1.3, Supplementary Fig. 1). […] For the unique H2O, there are three sets of HSP for different conditions. The first is the HSP of single-molecule (pure) water (15.5, 16.0, 42.3), in which the δH is more salient than δD and δP, it well explains the strong hydrogen bonding interactions between water molecules. However, its use in the prediction of solubility in water is not deemed appropriate in most cases. The second and third sets of HSP for water are those derived from solubility data and should be chosen case by case. The second set of HSP (15.1, 20.4, 16.5) was derived from experimental data set exceeding 1% soluble compounds in water, which may be appropriate for the diluted solute case (denoted as Water1). The third set of HSP (18.1, 17.1, 16.9) was derived from experimental data set of complete miscible compounds with water, which may be appropriate for the dense solute case (denoted as Water2).
1.3 Determination of solubility-related parameters […]
(2) Determination of Hansen solubility parameters (HSP)3
A collection of solvents was used to estimate the HSPs values of C2–C12, which includes dichloromethane, chloroform, toluene, diethyl ether, hexane, dioxane, pyridine, tetrahydrofuran, dimethyl sulfoxide, N, N-dimethyl formamide, acetone, acetonitrile, methanol and ethanol. If the specific solvent (0.5 mL) can dissolve at least 1.0 mg of certain solute would be rated as good solvent, otherwise as bad solvent. For C1, it’s expected that this molecule can only dissolve in nonpolar solvents (recrystallized from CCl4 according to literature report). We […]
methanol, ethanol and water would be bad solvents. These rated solvent s datasets for C1–C12 were imported to HSPiP software that developed by Dr. Hansen, Abbott and Hiroshi to optimize and obtain three partial HSPs values.

[3] = set-up: method as in hazardous substances data bank; conditions: 25 °C; ref hazardous substances data bank; cited from earlier work
[4] = Apparent association constants by 1H NMR shift analysis (dimeric model); assay type: physicochemical; conditions: for Ka (CHCl3), apparent association constant: CHCl3, dimeric model; for Ka (MeOH-H2O), apparent association constant: MeOH-H2O (legend: H2O), dimeric model
From the text: As is known, high concentration as a driving force to promote the molecular aggregation in solution is ubiquitous and well recognized[37],[38]. To compare the high concentration induced aggregation phenomenon with our case, we measured their apparent association constants (Ka) by ^1H NMR shift analysis after simplifying the aggregates to a dimeric model[39] (Supplementary Figs. 17–28). As listed in Fig. 3b, C10-C12 in chloroform display relatively weak association ability induced by high concentration factor. […] Meanwhile, the ^13C NMR spectra gave more informative details about C10-C12 in different existing states (Fig. 3c, Supplementary Figs. 13 and 14). […] In comparison, these signals became broadened and moved to upfield with a maximal 3.19 ppm shift in D2O conditions, which was almost in consistent with the solid-state ^13C magic-angle spinning (MAS) NMR spectrum despite its much broader signature. Moreover, the luminescent emissions of C10-C12 in various solvent ratios and solid-state were also screened (Fig. 3d, Supplementary Figs. 33 and 34). […] Unexpectedly, the maximal emissions in water are close to the solid state of C10-C12 (e.g., 472 nm in water versus 486 nm in solid for C10), indicative of a homologous excited-state energy transfer pathway.

[5] = Kinetic radii from DOSY NMR (Stokes-Einstein equation); assay type: physicochemical
[6] = AFM measurement of nanoparticles in wet conditions; assay type: physicochemical; conditions: aqueous solution 1.5 mM on mica
Procedure: To further confirm the aggregation-induced nanoparticles formed in water, we carried out atomic force microscope (AFM) measurement of C10-C12 in wet conditions[35] (Fig. 2c and Supplementary Figs. 29–31). Typically, a drop of aqueous solution of C11 (1.5 mM) was cast on a freshly cleaved mica surface and subjected to test. […] 2D and 3D height profiles gave a particle size around 8 nm.

SMILES | Water contact angle (Water-contact angle test) [°] | solubility at 24 h [1] [µg/mL] | Water2 Ra [2] [MPa^0.5] | Water1 Ra [2] [MPa^0.5] | δD (dispersion solubility parameter) [2] | δH (hydrogen bonding solubility parameter) [2] | δP (polar solubility parameter) [2] | R0 (intrinsic distance parameter) [2] [MPa^0.5] | Aqueous solubility [3] | Aqueous solubility [1] | Water1 RED (Ra/R0) [2] | Water2 RED (Ra/R0) ([2]; water HSP of dense condition (18.1, 17.1, 16.9)) | Ka (CHCl3), apparent association constant [4] | Ka (MeOH-H2O), apparent association constant [4] | kinetic radius, DOSY ([5]; D2O) [nm] | kinetic radius, DOSY ([5]; MeOD-d4) [nm] | average diameter of nanoparticles (AFM statistical analysis) [6] [nm]
c1cnc2c(c1)c1nc(-c3ccncc3)[nH]c1c1cccnc12 [C4] | 0 | < 100 | 3.8 | 5.5 | 16.4 (MPa)^0.5 | 16.1 (MPa)^0.5 | 15.6 (MPa)^0.5 | 7.5 | – | – | – | – | – | – | – | – | –
c1ccc(-c2nc3c4cccnc4c4ncccc4c3[nH]2)nc1 [C6] | 0 | < 100 | 5.9 | 7.9 | 16.1 (MPa)^0.5 | 16.8 (MPa)^0.5 | 12.8 (MPa)^0.5 | 7.9 | – | – | – | – | – | – | – | – | –
c1cnccn1 [pyrazine] | – | – | – | – | – | – | – | – | freely soluble in water | – | – | – | – | – | – | – | –
c1ccc(-c2nc3c4ccccc4c4ccccc4c3o2)cc1 [C7] | 135.2 | < 100 | 13.9 | 18.2 | 19.5 (MPa)^0.5 | 7.5 (MPa)^0.5 | 7.2 (MPa)^0.5 | 6.6 | – | barely soluble in water | 2.8 | – | – | – | – | – | –
c1ccc(-c2nc3c4cccnc4c4ncccc4c3[nH]2)cc1 [C3] | 0 | < 100 | 10.5 | 14.1 | 17.9 (MPa)^0.5 | 10.1 (MPa)^0.5 | 9.1 (MPa)^0.5 | 5.4 | – | – | – | 1.9 | – | – | – | – | –
c1ccc(-c2nc3c4cccnc4c4ncccc4c3o2)nc1 [C12] | 0 | 150000 (≈ 503 mM) | 10.9 | 16.4 | 19.4 (MPa)^0.5 | 17.2 (MPa)^0.5 | 6.5 (MPa)^0.5 | 12.3 | – | – | 1.3 | – | 13(1) M^-1 | 918(77) M^-1 | – | – | –
c1cncc(-c2nc3c4cccnc4c4ncccc4c3o2)c1 [C11] | 0 | 13000 (≈ 43.6 mM) | 10.2 | 14.9 | 18.3 (MPa)^0.5 | 15.9 (MPa)^0.5 | 7.0 (MPa)^0.5 | 11 | – | – | 1.4 | – | 6(1) M^-1 | 850(50) M^-1 | 3.98 | 0.65 | 8.32
